From patent US20140343017A1, “PYRROLE COMPOUND” (Kabushiki Kaisha Yakult Honsha, priority 2012, published 2014)

Experiments:
[1] = test system: Human non-small cell lung cancer NCI-H460 cells; assay: Inhibitory effect on growth of PTX-resistant tumor cell line, parent line (in vitro); assay type: cell-based; conditions: 96 hours culture, WST-8
Experimental: Each compound of the present invention was studied for its effect on the growth of a tumor cell line having a PTX resistance mechanism different from that attributed to the high expression of P-glycoprotein. Human non-small cell lung cancer NCI-H460 cells were exposed to 1 nM paclitaxel (PTX) and 10 μM verapamil at the same time. Only the PTX concentration was increased to 2, 3, 4, 5, and 7 nM in order over approximately 6 months to establish PTX-resistant H460/PV2-7 cells (PV2-7). […] As for the PTX resistance mechanism different from that attributed to the high expression of P-glycoprotein, an isotype called Class III β-tubulin (TUBB3), which is one isotype of […], has been reported to be highly expressed in PTX-resistant established lines in vitro or in clinical samples from patients having resistance to PTX therapy.
The PV2-7 cells and the parent line NCI-H460 cells were suspended in a medium and inoculated at a cell density of 1000 cells/50 μL/well to a 96-well plate. After overnight culture, each compound diluted 2-fold (final concentration) was added thereto at a concentration of 50 μL/well, and the cells were cultured for 96 hours. After the completion of culture, WST-8 (Seikagaku Corp.) was added thereto at a concentration of 10 μL/well, and the cells were cultured at 37° C. for approximately 1 hour under 5% CO2 conditions, followed by measurement of absorbance at 450 nm.

[2] = test system: human colorectal cancer HCT116 cells; assay: Inhibitory effect on growth of human cancer cells (in vitro), WST-8; assay type: cell-based; conditions: Homo sapiens, HCT-116, 96 h, 96 hours culture
Method in brief: (§1)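 Cells seeded at 1000 cells/well in RPMI1640 with 10% FBS, compounds added after overnight culture, then 96 h exposure. Viability by WST-8, about 1 h at 37 °C, 5% CO2, absorbance read at 450 nm.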

[3] = test system: human colorectal cancer HT-29 cells; assay: as above; assay type: cell-based; conditions: Homo sapiens, HT-29, 96 h, 96 hours culture, read-out: IC50 (nM) HT29
Method in brief: as §1

[4] = test system: human non-small cell lung cancer A549 cells; assay: as above; assay type: cell-based; conditions: Homo sapiens, A549, 96 h, 96 hours culture
Method in brief: as §1

[5] = test system: Human uterus cancer MES-SA cells; assay: Inhibitory effect on growth of multidrug-resistant cell line, parent line (in vitro); assay type: cell-based; conditions: 48 hours culture, WST-8
From the text: (§2) Each compound of the present invention was studied for its effect on the growth of a multidrug-resistant cell line. A drug efflux pump called P-glycoprotein is well known to be involved in the drug resistance mechanism of the multidrug-resistant line MES-SA/Dx5 used in this experiment. Accordingly, in this experiment, paclitaxel and vincristine, which are proven substrates of P-glycoprotein, were used as control drugs. Human uterus cancer MES-SA cells and their multidrug-resistant line MES-SA/Dx5 cells were suspended in a medium and inoculated at a cell density of 2000 cells/50 μL/well to a 96-well plate. After overnight culture, each test sample diluted with a medium was added thereto at a concentration of 50 μL/well, and the cells were further cultured for 48 hours. After the completion of culture, WST-8 was added thereto at a concentration of 10 μL/well, and the cells were cultured at 37° C. for approximately 1 hour under 5% CO2 conditions, followed by measurement of absorbance at a wavelength of 450 nm. […] The resistance rate was calculated according to the following expression:
(§3) Resistance rate=IC50 value (MES-SA/Dx5)/IC50 value (MES-SA)

[6] = test system: multidrug-resistant line MES-SA/Dx5 cells; assay: Inhibitory effect on growth of multidrug-resistant cell line (in vitro); assay type: cell-based, human; conditions: for IC50: Homo sapiens, MES-SA/Dx5 cells, 48 hours culture, WST-8; for Resistance rate: IC50 value (MES-SA/Dx5)/IC50 value (MES-SA)
From the text: as §2, §3

[7] = test system: human lung cancer NCI-H460 xenograft tumor; assay: Antitumor effect on growth of human lung cancer NCI-H460 xenograft tumor (in vivo); set-up: species or system BALB/c nude mice; conditions: Mus musculus, NCI-H460, iv, 528 h, tail vein, excised tumor weight Day 22, read-out: Inhibition Rate (%)
Experimental: Each compound of the present invention was studied for its in vivo antitumor effect using human lung cancer NCI-H460 cell-transplanted mice. An NCI-H460 cell suspension containing 2×10^6 cells was subcutaneously transplanted in an amount of 0.1 mL/mouse to the left groin areas of 6-week-old male BALB/c nude mice. The mice were further raised for approximately 1 week to 10 days and divided into groups (4 mice per group) having equal estimated tumor volumes at the point in time when the tumor size reached approximately 100 to 200 mm^3 (Day 1). Each administration sample was administered at a dose of 10 mL/kg into the tail vein of the mice. The dose and administration schedule of each compound were as described in Table 3. At Day 22, tumor was excised from each mouse. The tumor growth inhibition rate (IR: Inhibition Rate) was calculated from the weight of the excised tumor according to the expression shown below. The Dunnett's test was used in the significant difference test.
Tumor growth inhibition rate (Inhibition Rate, %)=(1−(Excised tumor weight of the administration group)/(Excised tumor weight of the control group))×100

PV2-7 xenograft tumor = assay: Antitumor effect on growth of PV2-7 xenograft tumor (in vivo); set-up: species or system BALB/c nude mice; conditions: tail vein, once a week, three times in total (Days 1, 8, and 15); FIG. 5
Experimental: The mice were further raised for approximately 1 week to 10 days and divided into groups (4 or 5 mice per group) having equal estimated tumor volumes at the point in time when the tumor size reached approximately 100 to 200 mm^3 (Day 1). Each administration sample was administered at a dose of 10 mL/kg into the tail vein of the mice. In an administration schedule, each sample was administered once a week, three times in total (Days 1, 8, and 15).

[8] = Days 1, 3, 5, 8, 10, 12, 15, 17, 19

SMILES | IC50 [1] | IC50 [2] | IC50 [3] | IC50 [4] | IC50 [5] | IC50 [6] | Resistance rate [6] | further results
CO[C@H]1C(=O)[C@]2(C)[C@@H](OC)C[C@H]3OC[C@@]3(OC(C)=O)[C@H]2[C@H](OC(=O)c2ccccc2)[C@]2(O)C[C@H](OC(=O)[C@H](O)[C@@H](NC(=O)OC(C)(C)C)c3ccccc3)C(C)=C1C2(C)C [Cabazitaxel, cabazitaxel] | 1.3 nM | – | – | – | – | – | – | –
Cc1[nH]c(-c2nnn(CCO)n2)c(C)c1C(=O)c1cccc(Br)c1 [Compound 102, (3-bromophenyl)(5-(2-(2-hydroxyethyl)-2H-tetrazol-5-yl)-2,4-dimethyl-1H-pyrrol-3-yl)methanone] | – | 9.5 nM | 8.7 nM | 19.3 nM | 3.8 nM | 4.3 nM | 1.1 | inhibition in vivo at 12.5 mg/kg [7, 8]: 43.4%; inhibition in vivo at 25 mg/kg ([7]; 25 mg/kg, Days 1, 3, 5, 8, 10, 12, 15, 17, 19): 61.1%; inhibition in vivo at 37.5 mg/kg ([7]; 37.5 mg/kg, Days 1, 3, 5, 8, 10, 12, 15, 17, 19): 80.5%; inhibition in vivo at 40 mg/kg ([7]; 40 mg/kg, Days 1, 5, 9): 96.5%
COc1ccc(C(=O)c2c(C)[nH]c(-c3nnn(CCO)n3)c2C)cc1Br [Compound 110, (3-bromo-4-methoxyphenyl)(5-(2-(2-hydroxyethyl)-2H-tetrazol-5-yl)-2,4-dimethyl-1H-pyrrol-3-yl)methanone] | – | 14.2 nM | 8.2 nM | 39.3 nM | 5.5 nM | 22.7 nM | 4.2 | inhibition in vivo at 12.5 mg/kg [7, 8]: 55.8%; inhibition in vivo at 18.75 mg/kg ([7]; 18.75 mg/kg, Days 1, 3, 5, 8, 10, 12, 15, 17, 19): 77.4%
Cc1c(-c2nnn(CCO)n2)[nH]c(CO)c1C(=O)c1cccc(Br)c1 [Compound 121, (3-bromophenyl)(5-(2-(2-hydroxyethyl)-2H-tetrazol-5-yl)-2-(hydroxymethyl)-4-methyl-1H-pyrrol-3-yl)methanone] | 76.2 nM | 43.5 nM | 43.8 nM | 122 nM | 49.8 nM | 88.4 nM | 1.8 | inhibition in vivo at 60 mg/kg ([7]; 60 mg/kg, Days 1, 3, 5, 8, 10, 12, 15, 17, 19): 60.6%; inhibition in vivo at 120 mg/kg ([7]; 120 mg/kg, Days 1, 8, 15): 75.5%
Cc1c(-c2nnn(CCO)n2)[nH]c(C(C)O)c1C(=O)c1cccc(Br)c1 (centres unmarked) [Compound 123, (3-bromophenyl)(2-(1-hydroxyethyl)-5-(2-(2-hydroxyethyl)-2H-tetrazol-5-yl)-4-methyl-1H-pyrrol-3-yl)methanone] | 68.8 nM | 46.1 nM | 39.5 nM | 326 nM | 63.3 nM | 135 nM | 2.1 | inhibition in vivo at 50 mg/kg ([7]; 50 mg/kg, Days 1, 3, 5, 8, 10, 12, 15, 17, 19): 58.2%; inhibition in vivo at 100 mg/kg ([7]; 100 mg/kg, Days 1, 5, 9): 56.5%
CNC(=O)c1[nH]c(-c2nnn(CCO)n2)c(C)c1C(=O)c1cccc(Br)c1 [Compound 142, 3-(3-bromobenzoyl)-5-(2-(2-hydroxyethyl)-2H-tetrazol-5-yl)-N,4-dimethyl-1H-pyrrole-2-carboxamide] | 374 nM | 194 nM | 176 nM | 257 nM | 238 nM | 656 nM | 2.8 | inhibition in vivo at 140 mg/kg ([7]; 140 mg/kg, Days 1, 8, 15): 73.8%
COc1ccc(C(=O)c2c(C)[nH]c(-c3nnc(C4CC4)o3)c2C)cc1Br [Compound 198, (3-bromo-4-methoxyphenyl) (5-(5-cyclopropyl-1,3,4-oxadiazol-2-yl)-2,4-dimethyl-1H-pyrrol-3-yl)methanone] | – | 0.9 nM | 0.3 nM | 1.8 nM | 0.21 nM | 0.28 nM | 1.3 | inhibition in vivo at 10 mg/kg ([7]; 10 mg/kg, Days 1, 3, 8, 10, 12, 15, 17, 19): 51.6%
COc1ccc(C(=O)c2c(C(C)O)[nH]c(-c3nnc(C4CC4)o3)c2C)cc1Br (centres unmarked) [Compound 268, (3-bromo-4-methoxyphenyl)(5-(5-cyclopropyl-1,3,4-oxadiazol-2-yl)-2-(1-hydroxyethyl)-4-methyl-1H-pyrrol-3-yl)methanone] | – | 2.5 nM | 5.2 nM | 4.1 nM | – | – | – | inhibition in vivo at 20 mg/kg ([7]; 20 mg/kg, Days 1, 3, 5, 8, 10, 12, 15, 17, 19): 41.2%
CC(=O)O[C@@]12CO[C@@H]1C[C@H](O)[C@@]1(C)C(=O)[C@H](O)C3=C(C)[C@@H](OC(=O)[C@H](O)[C@@H](NC(=O)OC(C)(C)C)c4ccccc4)C[C@@](O)([C@@H](OC(=O)c4ccccc4)[C@H]21)C3(C)C [Docetaxel, docetaxel] | 1.5 nM | – | – | – | – | – | – | –
CC(=O)O[C@H]1C(=O)[C@@]2(C)[C@H]([C@H](OC(=O)c3ccccc3)[C@]3(O)C[C@H](OC(=O)[C@H](O)[C@@H](NC(=O)c4ccccc4)c4ccccc4)C(C)=C1C3(C)C)[C@]1(OC(C)=O)CO[C@@H]1C[C@@H]2O [Paclitaxel, paclitaxel, reference compound] | 3.5 nM | – | – | – | 15.2 nM | 3700 nM | 243.3 | antitumor effect on PV2-7 cell-transplanted mice (PV2-7 xenograft tumor): hardly effective
CC[C@]1(O)C[C@H]2CN(CCc3c([nH]c4ccccc34)[C@@](C(=O)OC)(c3cc4c(cc3OC)N(C=O)[C@H]3[C@@](O)(C(=O)OC)[C@H](OC(C)=O)[C@]5(CC)C=CCN6CC[C@]43[C@@H]65)C2)C1 [Vincristine, vincristine, reference compound] | – | – | – | – | 36.2 nM | 2440 nM | 67.5 | –
